Experimental data: patent publication US20180296630A1, “METHODS AND COMPOSITIONS FOR PREVENTING OR TREATING OPHTHALMIC CONDITIONS” (Stealth BioTherapeutics Corp, priority 2012, published 2018)

Key:
[1] = tested on: human retinal epithelial cells (HREC); test: Survival of HRECs in high glucose (Annexin V/PI, flow cytometry); assay type: cell-based; conditions: for survival ratio for HRECs (Q3): 24 hours
Description: Methods of HREC culture useful in the studies of the present invention are known. See generally, Li B, Tang S B, Zhang G, Chen J H, Li B J. Culture and characterization of human retinal capillary endothelial cell. Chin Ophthal Res 2005; 23: 20-2; Premanand C, Rema M, Sameer M Z, Sujatha M, Balasubramanyam M. Effect of curcumin on proliferation of human retinal endothelial cells under in vitro conditions. Invest Ophthalmol Vis Sci 2006; 47: 2179-84.
Briefly, HREC cells were divided into three groups: a normal control group; a group administered 30 mM glucose; and a group administered 30 mM glucose+D-Arg-2′,6′-Dmt-Lys-Phe-NH2. Survival of HRECs in high glucose co-treated with different concentrations of D-Arg-2′,6′-Dmt-Lys-Phe-NH2 (10 nM, 100 nM, 1 μM, 10 μM) was measured using an Annexin V+PI assay and flow cytometry. See generally, Koopman, G., Reutelingsperger, C. P., Kuijten, G. A. M., Keehnen, R. M. J., Pals, S. T., and van Oers, M. H. J. 1994. Annexin V for flow cytometric detection of phosphatidylserine expression on B cells undergoing apoptosis. Blood 84: 1415; Homburg, C. H., de Haas, M., von dem Borne, A. E., Verhoeven, A. J., Reutelingsperger, C. P., and Roos, D. 1995. Human neutrophils lose their surface Fc gamma RIII and acquire Annexin V binding sites during apoptosis in vitro. Blood 85: 532; Vermes, I., Haanen, C., Steffens-Nakken, H., and Reutelingsperger, C. 1995. A novel assay for apoptosis—flow cytometric detection of phosphatidylserine expression on early apoptotic cells using fluorescein labelled Annexin V. J. Immunol. Meth. 184: 39; Fadok, V. A., Voelker, D. R., Campbell, P. A., Cohen, J. J., Bratton, D. L., and Henson, P. M. 1992. Exposure of phosphatidylserine on the surface of apoptotic lymphocytes triggers specific recognition and removal by macrophages. J. Immunol. 148: 2207.
The survival of HRECs in high glucose co-treated with D-Arg-2′,6′-Dmt-Lys-Phe-NH2 was tested at 24 h and 48 h.

GTM cells = test: TMRM fluorescence (mitochondrial membrane potential), acute H2O2 injury, FACS, GTM cells; assay type: cell-based, human; conditions: n=4
Description: Methods to measure mitochondrial membrane potential using TMRM useful in the studies of the present invention have been described by Andrea Rasola and Massimo Geuna, A flow cytometry assay simultaneously detects independent apoptotic parameters, Cytometry 45:151-157, 2001; Mitoprobe™ JC-1 Kit for Flow Cytometry, Molecular Probes, Invitrogen, USA.
The mitochondrial membrane potential (Δψm) of HTM and GTM cells was investigated when those cells were exposed to hydrogen peroxide prior to administration of D-Arg-2′,6′-Dmt-Lys-Phe-NH2. First, the mitochondrial membrane potential was measured using confocal microscopy of cells labeled with tetramethylrhodamine methyl ester (TMRM, 500 nM×30 min) (FIG. 15). The mitochondrial membrane potential was also measured using flow cytometry (FIGS. 16-17) by labeling cells with the mitochondrion-selective probe tetramethylrhodamine methyl ester (TMRM, 500 nM×30 min).
The effects of D-Arg-2′,6′-Dmt-Lys-Phe-NH2 at mitigating acute oxidative injury in GTM and HTM cells was investigated. […] The percentage of fluorescence intensity compared to GTM control in H2O2, D-Arg-2′,6′-Dmt-Lys-Phe-NH2 10^−6M, D-Arg-2′,6′-Dmt-Lys-Phe-NH2 10^−7M, D-Arg-2′,6′-Dmt-Lys-Phe-NH2 10^−8M were 35.2±2.12%, 56.2±4.04%, 50.3±4.46%, 47.5±2.82% respectively, n=4; the HTM groups were 37.4±0.725%, 57.7±1.80%, 50.6±3.06%, 49.4±2.27% respectively, n=4. ** means P<0.01 compared to GTM H2O2 group; * means P<0.05 compared to GTM H2O2 group; ▴ ▴ ▴ means P<0.001 compared to HTM H2O2 group.

[2] = tested on: primary human retinal pigment epithelial (RPE) cells; test: MMP of RPE cells exposed to tBHP (JC-1, FACS); assay type: cell-based
Protocol: Next, the viability of primary RPE cells was tested in the presence of tBHP and various concentrations of D-Arg-2′,6′-Dmt-Lys-Phe-NH2. Cells were plated at 10,000 cells per well in a 96-well plate and cultured for 24 h, then starved for 24 h. After that, cells were exposed to increasing concentrations of tBHP (FIG. 23A), or preincubated for 4 h with different concentrations of D-Arg-2′,6′-Dmt-Lys-Phe-NH2, then stimulated with tBHP for 6 h (FIG. 23B). […] Intracellular ROS production in three groups of RPE cells was also examined using FACS analysis. […] Three different concentration of D-Arg-2′,6′-Dmt-Lys-Phe-NH2 groups were analyzed. The ratio of red to green in 500 μM tBHP for the 3 h group is 1.08, the ratio of red to green in 10 nM D-Arg-2′,6′-Dmt-Lys-Phe-NH2 for 4 h+500 tBHP for 3 h group is 1.25; the ratio of red to green in 100 nM D-Arg-2′,6′-Dmt-Lys-Phe-NH2 for 4 hr+500 μM tBHP for 3 h group is 1.4; and the ratio of red to green in 1 μM D-Arg-2′,6′-Dmt-Lys-Phe-NH2 for 4 h+500 μM tBHP for 3 h group is […]. […] FIG. 33A: Control group, R/G is 3.63±0.24; FIG. 33B: 500 μM tBHP for 3 h group, R/G is 1.08±0.11; FIG. 33C: 1 μM D-Arg-2′,6′-Dmt-Lys-Phe-NH2 for 4 h+500 μM tBHP for 3 h group, R/G is 2.38±0.18. FIG. 33D is a chart comparing the fluorescence ratio for the different groups. *P<0.01, C vs. B.

[3] = tested on: STZ diabetic rats with intraocular ischemia/reperfusion; test: Efficacy Pharmacological Test 1: diabetic rats, intraocular ischemia/reperfusion, visual cell layer edema

Substance: D-Arg-2′,6′-Dmt-Lys-Phe-NH2
- survival ratio for HRECs (Q3) ([1]; 10 nM co-treatment with 30 mM glucose): 84.3%
- survival ratio for HRECs (Q3) ([1]; 100 nM co-treatment with 30 mM glucose): 90.7%
- survival ratio for HRECs (Q3) ([1]; 1 μM co-treatment with 30 mM glucose): 92.8%
- survival ratio for HRECs (Q3) ([1]; 10 μM co-treatment with 30 mM glucose): 94.3%
- survival of HRECs in high glucose ([1]; co-treatment, tested at 24 h and 48 h): significantly improved
- percentage of TMRM fluorescence intensity compared to GTM control (GTM cells; 10^−6M): 56.2±4.04%
- percentage of TMRM fluorescence intensity compared to GTM control (GTM cells; 10^−7M): 50.3±4.46%
- percentage of TMRM fluorescence intensity compared to GTM control (GTM cells; 10^−8M): 47.5±2.82%
- ratio of red to green (JC-1) ([2]; 10 nM for 4 h + 500 tBHP for 3 h (FIG. 32)): 1.25
- ratio of red to green (JC-1) ([2]; 100 nM for 4 hr + 500 μM tBHP for 3 h (FIG. 32)): 1.4
- ratio of red to green (JC-1) ([2]; 1 μM for 4 h + 500 μM tBHP for 3 h (FIG. 32)): 2.28
- R/G (JC-1) ([2]; 1 μM for 4 h + 500 μM tBHP for 3 h (FIG. 33C)): 2.38±0.18
- loss of nuclei in the inner retinal layer ([3]; compared to the diabetic control group): absent, or much diminished
- edema of the visual cell layer after ischemia/reperfusion ([3]; diabetic groups, oral, parenteral or eye drops twice per day): no edema or very low levels of edema
